The values that follow come from ChEMBL document CHEMBL1201862, “PubChem BioAssay data set” (2004).

Some test systems named below: 786-0; PC-3; SK-MEL-5; NCI-H226; UACC-257; SF-539; HOP-92; HOP-62; OVCAR-5; HCT-116; CCRF-CEM; UACC-62; SR; TK-10; CAKI-1; SN12C; NCI-H522; M14; RXF 393; NCI/ADR-RES.
Test in all cases: NCI-60 cell line screen, 48 h

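Grown in 96-well plates, cells were treated for 48 hours with each compound at five concentrations. Insufficient inhibition: endpoint recorded as highest concentration tested. GI50: concentration for 50% inhibition of growth.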 Activity calls are given as the source filed them. Rule as the data show it: active = GI50 up to about 1.1 µM and inactive = higher.

As for `O=C1c2c(O)cccc2C(C(=O)CCCCC(=O)C2c3cccc(O)c3C(=O)c3c(O)cccc32)c2cccc(O)c21`, the GI50 with 786-0 was 2.24 µM (inactive); with PC-3, 0.107 µM (active); with SK-MEL-5 it was 0.473 µM (active); in the assay on NCI-H226 it was 0.918 µM (active); with UACC-257, 0.526 µM (active); with SF-539, 0.399 µM (active). Besides, the GI50 with HOP-92 is 0.627 µM (active); in the assay with HOP-62, 0.618 µM (active); in the assay on OVCAR-5, 0.528 µM (active); with HCT-116, 0.67 µM (active); in the assay with CCRF-CEM, 0.652 µM (active); in the assay with UACC-62, 0.724 µM (active). The GI50 was 0.798 µM (active) with SR; 1.55 µM (inactive) with TK-10; 3.92 µM (inactive) in the assay on CAKI-1; 0.83 µM (active) in the assay with SN12C; 0.543 µM (active) in the assay with NCI-H522; 0.897 µM (active) with M14.
For `CCOC(=O)c1[nH]c(CN(C)Cc2[nH]c(C(=O)OCC)c(C)c2C(=O)OCc2ccccc2)c(C(=O)OCc2ccccc2)c1C`, the GI50 with 786-0 was 11.2 µM (inactive); in the assay on SK-MEL-5, 6.44 µM (inactive); in the assay on NCI-H226 it was 12.7 µM (inactive); in the assay on UACC-257, 21.4 µM (inactive); in the assay with SF-539, 8.47 µM (inactive); in the assay on HOP-92, 2.42 µM (inactive). In addition, the GI50 was 13 µM (inactive) with HOP-62; 6.81 µM (inactive) with OVCAR-5; 3.87 µM (inactive) in the assay on RXF 393; 7 µM (inactive) in the assay on HCT-116; > 100 µM (inactive) in the assay with CCRF-CEM; 20.4 µM (inactive) in the assay on UACC-62. For the same molecule, the GI50 was > 100 µM (inactive) with SR; 16.7 µM (inactive) in the assay with TK-10; 2.85 µM (inactive) in the assay with CAKI-1; 6.19 µM (inactive) in the assay on SN12C; 6.87 µM (inactive) in the assay with NCI-H522; 4.99 µM (inactive) with M14.
Consider `C=C(C[N+](C)(C)C)N/N=C/c1oc(-c2ccc(OC)c(OC)c2)c(-c2ccc(OC)c(OC)c2)c1[N+](=O)[O-]`, for which the GI50 is 17.6 µM (inactive) with 786-0; 16.4 µM (inactive) with SK-MEL-5; 27.3 µM (inactive) in the assay on NCI-H226; 20.2 µM (inactive) in the assay on UACC-257; 16.7 µM (inactive) in the assay on SF-539; 19.6 µM (inactive) in the assay on HOP-92. For the same molecule, the GI50 in the assay on OVCAR-5 was 19.1 µM (inactive); in the assay on RXF 393, 15.2 µM (inactive); in the assay with HCT-116, 17 µM (inactive); in the assay on CCRF-CEM it was 13.6 µM (inactive); in the assay with UACC-62, > 10 µM (inactive); with SR, 4.69 µM (inactive). Besides, the GI50 is 22.4 µM (inactive) in the assay on TK-10; 32.6 µM (inactive) with CAKI-1; 16.7 µM (inactive) in the assay with SN12C; 23.2 µM (inactive) in the assay on NCI-H522; 22.1 µM (inactive) in the assay on M14.
Turning to `CC1=C(C(=O)Nc2ccccc2C)C(c2ccccc2C)C(C(=O)Nc2ccccc2C)=C(C)N1`, the GI50 with 786-0 was 17.6 µM (inactive); with NCI-H226, 21.5 µM (inactive); in the assay with UACC-257 it was 27.5 µM (inactive); in the assay on SF-539 it was > 10 µM (inactive); with HOP-92 it was 10.1 µM (inactive); in the assay on HOP-62, 25.2 µM (inactive). The GI50 with OVCAR-5 was 23.3 µM (inactive); with RXF 393, 12.3 µM (inactive); in the assay on HCT-116, 20.4 µM (inactive); in the assay on SR, 24.2 µM (inactive); in the assay on TK-10, 28.8 µM (inactive); with SN12C, 18 µM (inactive). Besides, the GI50 in the assay on NCI-H522 was 14.8 µM (inactive).
For the molecule `Cc1[nH]c2ccccc2c1C(=O)CC1(O)C(=O)Nc2c(Cl)cc(Cl)cc21` (stereo unspecified), the GI50 with 786-0 was 26.8 µM (inactive); with SK-MEL-5, 17.2 µM (inactive); in the assay on NCI-H226, 18.8 µM (inactive); in the assay with UACC-257 it was 17.2 µM (inactive); in the assay with SF-539, 26.4 µM (inactive); in the assay with HOP-62 it was 46.9 µM (inactive). Also, the GI50 in the assay with OVCAR-5 is 24 µM (inactive); in the assay with RXF 393, 22.2 µM (inactive); in the assay with HCT-116 it was 35.1 µM (inactive); with CCRF-CEM it was 20.3 µM (inactive); in the assay with SR, 28.4 µM (inactive); with TK-10, 39.4 µM (inactive). Moreover, the GI50 is 40.8 µM (inactive) in the assay on CAKI-1, 24.8 µM (inactive) with SN12C, 16.9 µM (inactive) in the assay on NCI-H522 and 21.5 µM (inactive) in the assay on M14.
For the molecule `Cc1cc(C)c(C#N)c(SC(=S)NC(=O)c2ccc(Cl)cc2)n1`, the GI50 in the assay with 786-0, with PC-3, in the assay on SK-MEL-5, in the assay with UACC-257, in the assay on HOP-92 and with HOP-62 was > 100 µM (inactive) throughout. Moreover, the GI50 in the assay with OVCAR-5, with RXF 393, in the assay with HCT-116, in the assay with CCRF-CEM, with UACC-62 and in the assay on TK-10 was > 100 µM (inactive) each time. The GI50 in the assay with NCI/ADR-RES, in the assay on CAKI-1 and in the assay on M14 was > 100 µM (inactive) each time.
Consider `Cc1cc(Cc2cc(C)c(NC(=O)C(=O)C3C(=O)NC(=S)NC3=O)c(C(C)C)c2)cc(C(C)C)c1NC(=O)C(=O)C1C(=O)NC(=S)NC1=O`, for which the GI50 in the assay on 786-0, in the assay on NCI-H226, in the assay with UACC-257, with HOP-92, in the assay on HOP-62 and with OVCAR-5 was > 100 µM (inactive) throughout. The GI50 with RXF 393, in the assay with HCT-116, in the assay with CCRF-CEM, with UACC-62, in the assay with SR and in the assay with TK-10 was > 100 µM (inactive) in each case. The GI50 in the assay on CAKI-1, with SN12C, in the assay with NCI-H522 and with M14 was > 100 µM (inactive) in each case.
Consider `C[N+]12c3ccccc3O[B-]1(c1ccccc1)Oc1ccccc12` (stereo unspecified), for which the GI50 in the assay on 786-0 is 35.9 µM (inactive); with SK-MEL-5, 36.2 µM (inactive); with NCI-H226 it was 32.8 µM (inactive); in the assay on UACC-257, 27.1 µM (inactive); in the assay on SF-539, 26.9 µM (inactive); in the assay with HOP-92, > 100 µM (inactive). The GI50 was 72.1 µM (inactive) in the assay on HOP-62; 77.4 µM (inactive) with OVCAR-5; 25.4 µM (inactive) in the assay with RXF 393; 38.5 µM (inactive) with HCT-116; 11.9 µM (inactive) in the assay on CCRF-CEM; 37.4 µM (inactive) in the assay with UACC-62. The GI50 in the assay on SR is 10.9 µM (inactive); in the assay on TK-10, 23.5 µM (inactive); in the assay with CAKI-1, 63.1 µM (inactive); in the assay with SN12C, 31.9 µM (inactive); with NCI-H522 it was 15.3 µM (inactive); in the assay with M14, 15 µM (inactive).
In the case of `CN(C(=O)c1cccs1)C(=S)N1CCN(c2ccccc2)CC1`, the GI50 in the assay with 786-0 is > 100 µM (inactive); in the assay on SK-MEL-5, > 100 µM (inactive); with NCI-H226 it was > 100 µM (inactive); in the assay with UACC-257 it was > 100 µM (inactive); in the assay with HOP-92, 91.8 µM (inactive); in the assay with OVCAR-5 it was > 100 µM (inactive). Moreover, the GI50 with RXF 393 is > 100 µM (inactive); with CCRF-CEM, > 100 µM (inactive); in the assay on UACC-62, > 100 µM (inactive); in the assay on SR, 54.2 µM (inactive); in the assay with TK-10, > 100 µM (inactive); with SN12C, > 100 µM (inactive). In addition, the GI50 with NCI-H522 and with M14 was > 100 µM (inactive) throughout.
In the case of `CN(C)CCNC(=O)Cn1ccc(=O)c2c([N+](=O)[O-])cccc21`, the GI50 in the assay on 786-0, in the assay with PC-3, in the assay on SK-MEL-5, with NCI-H226, with UACC-257 and in the assay on SF-539 was > 100 µM (inactive) throughout. The GI50 in the assay on HOP-62, in the assay on OVCAR-5, with RXF 393, with HCT-116, in the assay with CCRF-CEM and with UACC-62 was > 100 µM (inactive) throughout. Also, the GI50 in the assay on SR, with TK-10, in the assay with CAKI-1, in the assay with SN12C, with NCI-H522 and in the assay on M14 was > 100 µM (inactive) throughout.
As for `Cc1ccccc1N/C(=C(/C(Cl)=C(Cl)Cl)[N+](=O)[O-])n1nnc2ccccc21`, the GI50 in the assay with 786-0 is 34 µM (inactive); with PC-3 it was 22.1 µM (inactive); with NCI-H226 it was 17.6 µM (inactive); in the assay on UACC-257, 28.9 µM (inactive); in the assay on SF-539, 17.6 µM (inactive); with HOP-62, 16.9 µM (inactive). Also, the GI50 is 16.8 µM (inactive) in the assay on OVCAR-5; 42.4 µM (inactive) in the assay with HCT-116; 29.6 µM (inactive) with CCRF-CEM; 22.7 µM (inactive) with UACC-62; 18.2 µM (inactive) in the assay with NCI/ADR-RES; 20.4 µM (inactive) in the assay with CAKI-1. Further, the GI50 is 17 µM (inactive) in the assay with SN12C and 24.5 µM (inactive) in the assay with M14.
On to `CCCC(=O)OC1=C(c2ccccc2)Sc2ccccc2-n2cccc21`, for which the GI50 in the assay on 786-0, in the assay on PC-3, with SK-MEL-5, in the assay with UACC-257, in the assay on HOP-92 and in the assay on HOP-62 was > 10 µM (inactive) throughout. Moreover, the GI50 in the assay with RXF 393, with CCRF-CEM, in the assay on UACC-62, in the assay with SR, in the assay on TK-10 and in the assay with CAKI-1 was > 10 µM (inactive) in each case. Also, the GI50 with SN12C and with M14 was > 10 µM (inactive) each time.
